# Results reported in patent US20220281902A1, “MIT[…] IMPROVE METABOLIC SYNDROME DURING AGING” (The Board of Trustees of the Leland Stanford Junior …, priority 2019, published 2022).
# Columns and labels:
# [1] = tested on: TNF-α, IL-6, CRP, leptin receptor, CD68 transcripts; experiment: qPCR of inflammatory factors, macrophage pan marker and leptin receptor; format: in vivo, mouse
# Procedure: (§1) Gene expression & RT qPCR Analyses. Total RNA was isolated using a commercially available kit (OMEGA bio-tek, R6812-02) according to the manufacturer's instructions. cDNA was generated using the PrimeScript RT reagent kit (TAKARA, RR047A). Gene expression were determined by qPCR as described in the product manual. The analysis was evaluated by Bio-Rad Real-Time System (CFX Connect™).
# (§2) RNAs from 10 mice (5 treated and 5 Ctrl.) VF fat or livers were isolated by using omega Bio-Tek reagents, and cDNA was transcribed by (TAKARA). qPCR was then performed by using iQ SYBR Green mastermix bioscience on a CFX96 Real-Time System/C1000 Thermal Cycler (Bio-Rad).
# [2] = Stability of compound in drinking water; format: physicochemical; settings: drinking water pH=7-7.4, room temperature, 20-30 days
# Excerpt: Previously, the inventors developed series of derivatives of the tetrazole, thiazole, and 1,2,3-triazole families that were thought to be reversible inhibitors of the cytochrome c oxidase (CcO) model and characterized as possible moderate inhibitors of mitochondrial respiration (Barile et al. (2012), Proceedings of the National Academy of Sciences of the United States of America, 109:7, pp. 2539-2543). In this research, a triphenyl phosphonium thiazole derivative (referred to herein as HG1a-1) was randomly selected. Overall, no mice died due to oral administration of compound during 18-20 months. […]
# The C57BL/6 mice were maintained on a standard purified mouse diet (PicoLab 5053 Rodent Diet 20; Lab Diets) until they reached 2 months of age when the treatments started. […] Body weights were measured weekly at the same time each week. Food and water intake were measured once every month for 3-6 consecutive days at the same time each month. Water consumption was measured for 2 weeks prior to the start of administration. Compound was generated and modified for better permeability in to mitochondria, evaluated by HPLC, was 96%-97%. […] Aliquots were collected from each batch and measured by HPLC to confirm stability of the compound. […] Rectal body temperature was measured monthly, as described previously. Whole blood samples, and histopathology were analyzed after 14 months of treatment. […]
# mature 3T3-L1 cells = experiment: 2-NBDG glucose uptake in matured adipocytes; format: cell-based; settings: highest concentration 50 μg/mL, vs insulin (control) and Rosiglitazone
# Procedure: Second, adipocytes are the main site of insulin action and, thereby, play an important role in glucose metabolism as well as in the regulation of body glucose homeostasis. Therefore, the glucose uptake tests were evaluated on matured adipocytes to stimulate 2-NBDG (glucose) in the absence and presence of insulin and Rosiglitazone (insulin-sensitizer) and the higher insulin sensitivity was verified after treatment by the inhibitor.
# HeLa cells = experiment: In vivo cervical cancer mouse model; set-up: species or system mice
# Procedure: To investigate the effects of an example compound on a cervical cancer mouse model, HeLa cells were introduced to the back of mice (five groups, 5-6 mice in each group). After the tumor volume reached about 200 mm^3, compound HG1a-1 solution (5, 20, 50 mg/kg) was dosed by intraperitoneal (IP) injection, every second day for ten days. Control mice were dosed with Saline and Taxol solution (PTX, 20 mg/kg). Tumor weight and volume were measured.
# p16, p21 transcripts = experiment: qPCR of DNA damage and WAT senescence markers; format: in vivo, mouse; settings: WAT, after 14 months treatment
# Procedure: as §1, §2
# [3] = visceral fat, 14 months old mice
# [4] = 5, 20 and 50 mg/kg IP, after 10 days
smiles,measurement,setting,value
"Cc1ncsc1CCOC(=O)C[P+](c1ccccc1)(c1ccccc1)c1ccccc1.[Br-] [HG1a-1, (2-(2-(4-Methylthiazol-5-yl)Ethoxy)-2-Oxoethyl) Triphenylphosphonium Bromide]",leptin receptor transcript abundance increase,[1]; mouse livers,2 fold
same,decline in abundance of CD68,[1]; visceral fat,5 fold
same,CRP transcript,[1]; [3],trivial changes
same,IL-6 transcript,[1]; [3],declined markedly
same,TNF-α transcript,[1]; [3],declined markedly
same,compound maintained intact in drinking water,[2],95%-99
same,2-NBDG uptake,mature 3T3-L1 cells,notably higher
same,tumor size,"HeLa cells; 5, 20, 50 mg/kg IP every second day for ten days, with increasing dose",decreased
same,tumor volume relative to saline control,HeLa cells; [4],decreased
same,tumor weight relative to saline control,HeLa cells; [4],decreased
same,p16 expression decline,"p16, p21 transcripts",10 fold
same,p21 expression,"p16, p21 transcripts",remained unchanged
